Source: patent US9314438B2, “Elevation of the plasma HDL-cholesterol level” (Aarhus Universitet, priority 2007, dated 2016)

Tests used:
[1] = test system: normal Wistar rats given a normal chow diet; assay: In vivo study: isosteviol treatment of normal Wistar rats on chow diet for 20 weeks (groups 1 and 2); details: for plasma HDL-cholesterol level increase, Δ in %: chow diet + isosteviol 0.03 g/kg/day
Excerpt: (§1) 44 normal wistar rats at the age of about 6 weeks and a bodyweight of about 230 g, was randomised into 4 groups, with 11 in each group. Group 1 and 2 were fed with standard chow diet±Isosteviol (0.03 g/kg/day). Group 3 and 4 were diet induced to be hyperlipidemic by feeding with a high cholesterol containing diet (1.63% g cholesterol, 0.41% g Cholic acid, 16.3% g sunflower oil)±Isosteviol (0.03 g/kg/day). In the experiment was used Isosteviol with a purity of 99.4%. The treatment period was 20 weeks.
(§2) Blood samples were analyzed for hormones and lipids at the start and end of the study. The blood samples were taken from the tail or eye into glasses containing heparine/aprotinin. The samples were centrifuged and the plasma was frozen. The following were analyzed: total fasting plasma triglyceride level, total plasma cholesterol level, and plasma HDL-cholesterol level. Liver samples were analysed for mRNA expression of genes like SREBP-1, which have relation to the fat metabolism. The body weight was measured throughout the study period together with the food intake.
(§3) The fasting total plasma cholesterol level and the HDL-cholesterol level were measured by an enzymatic colorimetric test, the “cholesterol CHOD-PAP” method (cholesterol oxidase±phenol 4 amino phenazon), based on Trinder, using commercially available test kits (Roche Diagnostics, Basel, Germany), and the Cobas Mira instrument (Roche Diagnostics). The fasting plasma triglyceride level was measured by the enzymatic colorimetric GPO-PAP method (Glycerol phosphate oxidase±phenol 4 amino phenazon), based on Trinder, using commercially available test kits (Roche Diagnostics, Basel, Germany), and the Cobas Mira instrument (Roche Diagnostics).
(§4) Data are expressed as means±standard error of the mean (SEM). Statistical significance between two groups was evaluated using a two-tailed t test. A p value of less than 0.05 was considered statistically significant. For statistical analysis were used student t-tests and two way ANOVA-tests.
(§5) The setup differs from the setup in Example 1 by the use of non-diabetic rats versus the diabetic hyperlipidemic KKAY mouse model. In the present study the effect on HDL is investigated by comparing rats with a normal cholesterol level with rats having a diet induced elevated plasma cholesterol level.

[2] = test system: KKAy mice; assay: In vivo study: isosteviol treatment of KKAy mice for 9 weeks (plasma lipids, body weight, food intake)
Protocol: Twenty male KKAy-mice (Clea Japan, Tokyo, Japan), all 5 week-old, weighing 22-25 g were randomized to 2 groups and treated for 9 weeks with; A: standard chow diet (control); B: standard chow diet+20 mg/kg BW of ISV. As a non-diabetic control group (C), ten normal C57BL-mice (Taconic, Ry, Denmark) were fed with standard chow diet (control to A), see FIG. 2 for outline of the study. The food intake was measured halfway through the study. The composition of the standard chow diet dry matter was: Protein 24%, carbohydrate 71%, and Lipids 5%. The drug isosteviol (ISV, ent-16-ketobeyeran-19-oic acid; Wako Pure Chemical Industries, Osaka, Japan) was incorporated in the mice food pellet and administered orally. The Danish Council for Animal experiments has approved the study.
Hormones and lipids were measured from blood sample at start and end of the treatment period. Blood sample was taken from the tail of the animals on chilled tubes containing heparin/aprotinin and centrifuged (4000 g, 60 seconds, 4° C.), and plasma was frozen for subsequent analysis of insulin, glucose, triglycerides, total cholesterol and HDL-cholesterol. Fasting blood glucose, as well as bodyweight (BW), was measured before and after intervention.
Plasma blood glucose was determined using the glucose oxidase method (GOD-PAP, Boehringer Mannheim, GmbH Germany). Insulin was determined by radioimmunoassay with a guinea pig antiporcine insulin antibody (PNILGP4, Novo Nordisk, Bagsvaerd, Denmark), and mono-[^125I]-(TyrA14) labeled human insulin (Novo Nordisk) as tracer and rat insulin (Novo Nordisk) as standard. We separated free and bound radioactivity using ethanol (See Heding L. G. Determination of total serum insulin (IRI) in insulin-treated diabetic patients; Diabetologia 1972; 8:260-266). Interassay and intra-assay variation was below 10%. […] The fasting plasma triglyceride level was measured by the enzymatic colorimetric GPO-PAP method (Glycerol phosphate oxidase±phenol 4 amino phenazon), based on Trinder, using commercially available test kits (Roche Diagnostics, Basel, Germany), and the Cobas Mira instrument (Roche Diagnostics). The fasting total plasma cholesterol level and the HDL-cholesterol level were measured by an enzymatic colorimetric test, the “cholesterol CHOD-PAP” method (cholesterol oxidase±phenol 4 amino phenazon), based on Trinder, using commercially available test kits (Roche Diagnostics, Basel, Germany), and the Cobas Mira instrument (Roche Diagnostics).
Data are expressed as means±standard error of the mean (SEM). Statistical significance between two groups was evaluated using a two-tailed t test. A p value of less than 0.05 was considered statistically significant. For plasma glucose calculations, analysis of covariance with adjustment for end body weight was performed.

[3] = test system: normal Wistar rats given a high fat diet; assay: In vivo study: isosteviol treatment of normal Wistar rats on high fat diet for 20 weeks (groups 3 and 4); details: for plasma HDL-cholesterol level increase, Δ in %: high fat diet + isosteviol 0.03 g/kg/day
Excerpt: as §1, §2, §3, §4, §5

[4] = test system: patients at high risk for coronary events; details: phase 3 clinical trial, active treatment group; trial terminated; cited from earlier work
[5] = Chow +Isosteviol, end (20 weeks)
[6] = Chow +Isosteviol, start of study
[7] = start to end (20 weeks), listed as Isosteviol
[8] = chow diet + isosteviol, start to end (20 weeks)
[9] = comparing group 2 with group 1 at the end of the study period
[10] = group 2, chow + isosteviol, start to end (20 weeks)
[11] = KKAy mice, 20 mg/kg BW/day, after 9 weeks, n=10, in mM
[12] = High fat +Isosteviol, end (20 weeks)
[13] = High fat +Isosteviol, start of study
[14] = High fat +Isosteviol, start to end
[15] = high fat diet + isosteviol, start to end (20 weeks)

What does the source list for `C[C@@]12CC[C@@H]3[C@@](CC[C@H]4[C@@]3(C)CCC[C@@]4(C)C(=O)O)(CC1=O)C2` (single isomer, unassigned; ent-16) [isosteviol, ent-16-ketobeyeran-19-oic acid]?
HDL cholesterol, End [1, 5]: 1.42 ± 0.08 MM; Total Cholesterol, End [1, 5]: 1.67 ± 0.09 MM; HDL cholesterol, Start [1, 6]: 1.25 ± 0.06 MM; Total Cholesterol, Start [1, 6]: 1.61 ± 0.06 MM; HDL cholesterol Δ Abs ([1]; Chow +Isosteviol, start to end): 0.17 ± 0.04 mM; Total Cholesterol Δ Abs ([1]; Chow +Isosteviol, start to end): 0.07 ± 0.06 mM; plasma HDL-cholesterol level increase, Δ in % ([1]; start to end (20 weeks)): 14%; plasma HDL-cholesterol level increase, Δ in % [1, 7]: 14%; fasting total plasma cholesterol level increase, Δ in % [1, 8]: 4%; fasting total plasma cholesterol level Δ [1, 8]: 0.07 ± 0.06 mmol/L; fasting total plasma cholesterol level increase, Δ in % ([1]; chow diet + isosteviol, start to end (20 weeks), listed as Isosteviol): 4%; reduction in triglyceride concentration, Δchange in % [1, 9]: 61±18%; reduction in triglyceride concentration, Δchange in absolute values [1, 9]: -0.28 ± 0.10 mmol/L; body weight reduced by ([1]; group 2 (chow + isosteviol) compared to group 1 (chow control), 20 weeks): 16%; body weight, mean±SEM ([1]; group 2, chow + isosteviol, 10 weeks of treatment): 371 ± 10 g; body weight, mean±SEM ([1]; group 2, chow + isosteviol, after 20 weeks of treatment): 388 ± 13 g; change in the fasting plasma triglyceride concentration [1, 10]: -0.16 ± 0.09 mmol/L; decrease in the fasting plasma triglyceride concentration [1, 10]: 23%; deaths ([1]; group 2, chow diet + isosteviol, 20 weeks): No deaths; fasting plasma triglyceride (TG) level ([2]; ISV group, age 5 week (start of treatment)): 1.25 mmol/L; fasting plasma triglyceride (TG) level ([2]; ISV group, age 14 weeks (after 9 weeks treatment)): 2.02 mmol/L; TG level increase, age 14 weeks compared to age 5 week ([2]; ISV group, KKAy control increased 192%): 62%; fasting total plasma cholesterol level increased by ([2]; KKAy mice, 20 mg isosteviol/kg body weight/day in chow, after 9 weeks, vs KKAy control): 28%; fasting plasma HDL-cholesterol, mean±SEM [2, 11]: 2.999±0.091; fasting plasma total cholesterol, mean±SEM [2, 11]: 3.055±0.067; plasma HDL-cholesterol concentration increased by ([2]; KKAy mice, 20 mg/kg BW/day, after 9 weeks, vs KKAy control): 71%; plasma TG decreased compared to the KKAy group ([2]; after 9 weeks treatment): 48%; body weight ([2]; after 9 weeks treatment, KKAy control 41.6 g): 36.3 g; reduction in weight ([2]; end of the 9 week treatment period, vs KKAy control): 13%; HDL cholesterol, End [3, 12]: 2.45 ± 0.25 MM; Total Cholesterol, End [3, 12]: 4.46 ± 0.37 MM; HDL cholesterol, Start [3, 13]: 1.34 ± 0.06 MM; Total Cholesterol, Start [3, 13]: 1.68 ± 0.1 MM; HDL cholesterol Δ Abs [3, 14]: 1.11 ± 0.26 mM; Total Cholesterol Δ Abs [3, 14]: 2.77 ± 0.38 mM; deaths ([3]; group 4, high fat diet + isosteviol, 20 weeks, two deaths in group 3 without isosteviol): No deaths; plasma HDL-cholesterol level increase, Δ in % ([3]; start to end (20 weeks)): 88%; plasma HDL-cholesterol level increase, Δ in % [3, 7]: 88%; fasting total plasma cholesterol level increase, Δ in % [3, 15]: 175%; fasting total plasma cholesterol level Δ [3, 15]: 2.77 ± 0.38 mmol/L; plasma HDL-cholesterol level Δ (SEM) [3, 15]: 1.11 ± 0.26 mmol/L; fasting total plasma cholesterol level increase, Δ in % ([3]; high fat diet + isosteviol, start to end (20 weeks), listed as Isosteviol): 175%

For `CCOC(=O)N1c2ccc(C(F)(F)F)cc2[C@@H](N(Cc2cc(C(F)(F)F)cc(C(F)(F)F)c2)C(=O)OC)C[C@H]1CC` [torcetrapib], which mortality [4] is on record?
The mortality was “increased mortality”.
